Active and inactive are the calls of the source. The calls are words filed in the database; no cut-off is given here.
What was measured:
HUVEC [1] = test: Inhibition of tube formation in HUVEC up to 30 uM after 24 hrs […]; type: functional, cell-based; settings: Homo sapiens
Integrin alpha-V/beta-8 = Integrin alpha-V/beta-8 (Homo sapiens, UniProt P06756+P26012); test: Inhibition of latency-associated peptide/TGF-beta binding to recombinant human integrin alphaV (Phe31 to Val992 residues) beta8 (Glu43 to Arg684 residues) expressed in CHO cells by ELISA based solid phase binding assay; type: cell-based
HUVEC [2] = test: Antiproliferative activity against HUVEC assessed as effect on cell viability up to 30 uM after 24 hrs by trypan blue assay; type: functional, cell-based; settings: Homo sapiens
Integrin alpha-V/beta-6 = Integrin alpha-V/beta-6 (Homo sapiens, UniProt P06756+P18564); test: Inhibition of latency-associated peptide/TGF-beta binding to recombinant human integrin alphaV (Phe31 to Val992 residues) beta6 (Gly22 to Asn707 residues) expressed in CHO cells by ELISA based solid phase binding assay; type: cell-based
[3] = biological target: Integrin alpha-IIb/beta-3 (Homo sapiens, UniProt P05106+P08514); test: Inhibition of fibrinogen binding to human platelet integrin alpha2b beta3 by ELISA based solid phase binding assay
Integrin alpha-V/beta-3 = Integrin alpha-V/beta-3 (Homo sapiens, UniProt P05106+P06756); test: Inhibition of vitronectin binding to recombinant human integrin alphaV (Phe31 to Val992 residues) beta3 (Gly27 to Asp718 residues) expressed in CHO cells by ELISA based solid phase binding assay; type: cell-based
Integrin alpha-5/beta-1 = Integrin alpha-5/beta-1 (Homo sapiens, UniProt P05556+P08648); test: Inhibition of fibronectin binding to recombinant human integrin alpha5 (Phe42 to Tyr995 residues) beta1 (Gln21 to Asp728 residues) expressed in CHO cells by ELISA based solid phase binding assay; type: cell-based
Integrin alpha-V/beta-5 = Integrin alpha-V/beta-5 (Homo sapiens, UniProt P06756+P18084); test: Inhibition of vitronectin binding to recombinant human integrin alphaV (Phe31 to Val992 residues) beta5 (Gly24 to Asn719 residues) expressed in CHO cells by ELISA based solid phase binding assay; type: cell-based

SMILES	inhibition (HUVEC [1])	IC50 (Integrin alpha-V/beta-8)	Activity (HUVEC [2])	IC50 (Integrin alpha-V/beta-6)	IC50 [3]	IC50 (Integrin alpha-V/beta-3)	IC50 (Integrin alpha-5/beta-1)	IC50 (Integrin alpha-V/beta-5)
CC1(C)NC(=O)[C@@H](Cc2ccccc2)NC(=O)[C@H](CC(=O)O)NC(=O)CNC(=O)[C@H](CCCNC(=N)N)NC1=O	inactive	806 nM	inactive	378 nM	> 10000 nM	5.5 nM	141 nM	50 nM
N=C(N)NCCC[C@@H]1NC(=O)CC2(CCCCC2)CNC(=O)[C@@H](Cc2ccccc2)NC(=O)[C@H](CC(=O)O)NC(=O)CNC1=O	inactive	3950 nM	inactive	1970 nM	657 nM	9.9 nM	623 nM	303 nM
C[Si]1(C)C[C@@H]2C(=O)N[C@@H](CCCNC(=N)N)C(=O)NCC(=O)NC(CC(=O)O)C(=O)NC(Cc3ccccc3)C(=O)N2C1 (single isomer, unassigned)	inactive	319 nM	inactive	178 nM	> 10000 nM	11 nM	1080 nM	66 nM
COc1c2cccc1C(=O)N[C@@H](CCCNC(=N)N)C(=O)NCC(=O)N[C@@H](CC(=O)O)C(=O)N[C@H](Cc1ccccc1)C(=O)N2	inactive	6880 nM	inactive	709 nM	4860 nM	72 nM	921 nM	4930 nM
N=C(N)NCCC[C@@H]1NC(=O)C2(CCCCC2)NC(=O)[C@@H](Cc2ccccc2)NC(=O)[C@H](CC(=O)O)NC(=O)CNC1=O	inactive	1500 nM	inactive	608 nM	> 10000 nM	3.3 nM	87.8 nM	63 nM
